From patent publication US20120316183A1, “NOVEL SOLVATES OF METHYLCARBAMATE” (Bayer Intellecutal Property GmbH, priority 2009, published 2012)

Experiment: processability of the solid form (grinding / micronization, flowability, sievability)
Format: physicochemical

grindability (micronization step) | flowability and sievability (compared to modification I of the compound of the formula (I)) | SMILES | fineness and tail of coarse material in the micronisate (compared to modification I, micronisate)
difficult to grind | – | COC(=O)Nc1c(N)nc(-c2nn(Cc3ccccc3F)c3ncccc23)nc1N [modification I, methyl {4,6-diamino-2-[1-(2-fluorobenzyl)-1H-pyrazolo[3,4-b]pyridin-3-yl]pyrimidin-5-yl}carbamate] | –
– | better flowability and sievability | COC(=O)Nc1c(N)nc(-c2nn(Cc3ccccc3F)c3ncccc23)nc1N [semi-ethanol solvate of the formula (Ia), semi-ethanol solvate of methyl {4,6-diamino-2-[1-(2-fluorobenzyl)-1H-Pyrazolo[3,4-b]pyridin-3-yl]pyrimidin-5-yl}carbamate] | higher fine-ness and a reduced tail of coarse material
